Experimental data taken from patent US20210198277A1, “AMINE-SUBSTITUTED ARYL OR HETEROARYL COMPOUNDS” (Epizyme, Inc., priority 2016, published 2021).
Where two headings read alike, the source gives them in different places.

Tests used:
human EHMT2 913-1193 = molecular target: T1, human EHMT2 913-1193 (Homo sapiens, UniProt Q96KQ7); assay: EHMT2 enzyme assay on histone peptide substrate (EHMT2 PEP); format: biochemical; conditions: read-out: EHMT2 PEP (IC50 μM)
T1 construct: recombinant purified human EHMT2 913-1193, Viva; purchased Viva
T1 sequence (Q96KQ7 913-1193): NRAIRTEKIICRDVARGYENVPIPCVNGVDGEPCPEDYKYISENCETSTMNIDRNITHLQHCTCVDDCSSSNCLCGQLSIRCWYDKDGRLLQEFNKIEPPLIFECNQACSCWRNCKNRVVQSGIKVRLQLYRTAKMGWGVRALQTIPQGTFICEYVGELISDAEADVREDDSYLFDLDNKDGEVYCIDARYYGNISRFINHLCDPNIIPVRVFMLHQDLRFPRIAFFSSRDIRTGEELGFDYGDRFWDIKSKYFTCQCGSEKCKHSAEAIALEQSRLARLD
Method: Recombinant purified human EHMT2 913-1193 (55 μM) synthesized by Viva was used for all experiments. Biotinylated histone peptides were synthesized by Biopeptide and HPLC-purified to >95% purity. Streptavidin Flashplates and seals were purchased from PerkinElmer and 384 Well V-bottom Polypropylene Plates were from Greiner. ^3H-labeled S-adenosylmethionine (^3H-SAM) was obtained from American Radiolabeled Chemicals with a specific activity of 80 Ci/mmol. Unlabeled SAM and S-adenosylhomocysteine (SAH) were obtained from American Radiolabeled Chemicals and Sigma-Aldrich respectively. Flashplates were washed in a Biotek ELx-405 with 0.1% Tween. 384-well Flashplates and 96-well filter binding plates were read on a TopCount microplate reader (PerkinElmer). Compound serial dilutions were performed on a Freedom EVO (Tecan) and spotted into assay plates using a Thermo Scientific Matrix PlateMate (Thermo Scientific). Reagent cocktails were added by Multidrop Combi (Thermo Scientific).
General Procedure for EHMT2 Enzyme Assay on Histone Peptide Substrate.
10-point curves of test compounds were made on a Freedom EVO (Tecan) using serial 3-fold dilutions in DMSO, beginning at 2.5 mM (final top concentration of compound was 50 μM and the DMSO was 2%). A 1 μL aliquot of the inhibitor dilution series was spotted in a polypropylene 384-well V-bottom plate (Greiner) using a Thermo Scientific Matrix PlateMate (Thermo Scientific). […] Compounds were incubated for 30 minutes with 40 μL per well of 0.031 nM EHMT2 (recombinant purified human EHMT2 913-1193, Viva) in 1× assay buffer (20 mM Bicine [pH 7.5], 0.002% Tween 20, 0.005% Bovine Skin Gelatin and 1 mM TCEP). […] Reactions were incubated for 60 minutes at room temperature and quenched with 10 μL per well of 400 μM unlabeled SAM, then transferred to a 384-well streptavidin Flashplate (PerkinElmer) and washed in a Biotek ELx-405 well washer with 0.1% Tween after 60 minutes. 384-well Flashplates were read on a TopCount microplate reader (PerkinElmer).

EHMT1 = molecular target: T2, EHMT1 (Homo sapiens, UniProt Q9H9B1); assay: EHMT1 enzyme assay on peptide substrate (EHMT1 PEP); format: biochemical; conditions: read-out: EHMT1 PEP (IC50 μM)
T2 sequence (Q9H9B1 1-1298): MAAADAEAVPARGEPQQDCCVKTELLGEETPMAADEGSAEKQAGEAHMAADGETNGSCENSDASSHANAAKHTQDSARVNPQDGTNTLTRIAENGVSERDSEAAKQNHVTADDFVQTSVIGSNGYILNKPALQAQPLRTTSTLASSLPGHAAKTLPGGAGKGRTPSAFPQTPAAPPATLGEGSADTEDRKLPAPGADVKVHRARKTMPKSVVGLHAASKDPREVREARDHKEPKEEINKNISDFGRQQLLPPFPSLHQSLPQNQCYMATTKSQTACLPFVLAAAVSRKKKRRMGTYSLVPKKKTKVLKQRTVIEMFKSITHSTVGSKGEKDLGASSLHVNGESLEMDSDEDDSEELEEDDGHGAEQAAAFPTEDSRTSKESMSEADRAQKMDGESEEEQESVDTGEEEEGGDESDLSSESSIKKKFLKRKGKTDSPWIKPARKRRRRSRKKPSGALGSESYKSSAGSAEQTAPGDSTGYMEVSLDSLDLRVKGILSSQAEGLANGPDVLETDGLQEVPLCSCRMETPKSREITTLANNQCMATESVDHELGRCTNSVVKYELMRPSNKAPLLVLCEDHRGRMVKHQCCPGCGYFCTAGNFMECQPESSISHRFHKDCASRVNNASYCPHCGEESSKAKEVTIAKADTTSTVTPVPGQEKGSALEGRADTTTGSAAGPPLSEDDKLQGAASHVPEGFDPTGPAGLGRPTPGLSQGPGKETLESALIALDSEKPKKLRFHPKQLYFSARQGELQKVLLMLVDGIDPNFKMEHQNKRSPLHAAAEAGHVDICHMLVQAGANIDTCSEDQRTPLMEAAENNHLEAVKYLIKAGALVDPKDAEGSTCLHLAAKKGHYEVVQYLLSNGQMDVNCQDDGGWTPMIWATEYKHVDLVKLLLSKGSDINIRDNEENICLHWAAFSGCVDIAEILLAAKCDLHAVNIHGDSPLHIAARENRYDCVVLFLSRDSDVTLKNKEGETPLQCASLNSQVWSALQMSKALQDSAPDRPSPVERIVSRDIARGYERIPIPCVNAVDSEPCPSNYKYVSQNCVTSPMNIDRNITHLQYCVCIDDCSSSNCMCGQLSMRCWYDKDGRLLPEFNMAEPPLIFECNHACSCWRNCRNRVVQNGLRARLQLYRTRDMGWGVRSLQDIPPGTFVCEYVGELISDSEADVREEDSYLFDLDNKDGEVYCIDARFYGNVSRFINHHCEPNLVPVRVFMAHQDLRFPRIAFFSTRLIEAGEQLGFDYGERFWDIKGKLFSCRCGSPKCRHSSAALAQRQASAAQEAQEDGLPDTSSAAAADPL

SMILES	IC50 (human EHMT2 913-1193; Table II) [µM]	IC50 (EHMT1; Table II) [µM]	IC50 (human EHMT2 913-1193; Table III) [µM]	IC50 (EHMT1; Table III) [µM]
CCCCNc1nccc(NC2CCOCC2)n1 [Compound 63]	> 10	> 10		
CCCCNc1nccc(NC2CCN(C(C)=O)CC2)n1 [Compound 65]	> 10	> 10		
CCCCNc1nccc(NC2CCC(N)CC2)n1 (stereo not shown) [Compound 70]	> 10	> 10		
CCCCNc1nccc(NCC2CCCO2)n1 (stereo not shown) [Compound 67]	> 10	> 10		
COc1ccc(Nc2nccc(CN(C)C3CCOCC3)n2)cc1OCCCN1CCCC1 [Compound 112]	> 10	> 10		
O=C(NCCNc1ccnc(NCC2CCNCC2)n1)c1cn(C2CC2)nn1 [Compound 93]	> 10	> 10		
COc1ccc(Nc2nccc(NCC3CCN(C(C)=O)CC3)n2)cc1OCCCN1CC[C@@H](F)C1 [Compound 118]	0.1 to 1	0.1 to 1		
CCCCNc1ccnc(NCCCN2CCCC2)n1 [Compound 73]	> 10	> 10		
COc1ccc(Nc2nccc(NCC3CCN(C(C)=O)CC3)n2)cc1OCC1CCCN1C (stereo not shown) [Compound 120]	1 to 10	0.1 to 1		
CCCCNc1nccc(NC2CCC(NC(C)=O)CC2)n1 (stereo not shown) [Compound 71]	> 10	> 10		
CCCCNc1ccnc(NCCCN)n1 [Compound 77]	> 10	> 10		
CNc1nc(Nc2ccc(OC)c(OCCCN3CCCC3)c2)ncc1Cl [Compound 211]	1 to 10	1 to 10		
O=C1Cc2cc(C(=O)NCCNc3ccnc(NCC4CCNCC4)n3)ccc2N1 [Compound 96]	1 to 10	1 to 10		
CCCCNc1nccc(NC2CCNCC2)n1 [Compound 64]	> 10	> 10		
COc1ccc(Nc2cccc3nn(C)cc23)cc1OCCCN1CCCC1 [Compound 197]	> 10	> 10		
CCCCNc1nccc(NCC2CCCCC2)n1 [Compound 61]	> 10	> 10		
CCCCNc1ccnc(NCCCN(C)C)n1 [Compound 78]	> 10	> 10		
CC(=O)N1CCC(CNc2nccc(NCCNC(=O)c3ccc4c(c3)CC(=O)N4)n2)CC1 [Compound 98]	> 10	> 10		
COc1ccc(Nc2nccc(CNC3CCNCC3)n2)cc1OCCCN1CCCC1 [Compound 104]	> 10	> 10		

SMILES	IC50 (human EHMT2 913-1193; Table II) [µM]	IC50 (EHMT1; Table II) [µM]	IC50 (human EHMT2 913-1193; Table III) [µM]	IC50 (EHMT1; Table III) [µM]
COc1cnc(Nc2cc(CNC3CCOCC3)ccn2)cc1OCCCN1CCCC1 [Compound 110]	1 to 10	1 to 10		
CN1CCC(CNc2nccc(NCCNC(=O)c3ccc4c(c3)CC(=O)N4)n2)CC1 [Compound 97]	1 to 10	1 to 10		
O=C(NCCNc1ccnc(NCC2CCNCC2)n1)c1ccc2c(c1)OC(F)(F)O2 [Compound 92]	> 10	> 10		
CNc1ccnc(Nc2cccc(OCC(O)CN3CCCC3)c2)n1 (stereo not shown) [Compound 212]	1 to 10	1 to 10		
COc1ccc(Nc2ncc(N)cn2)cc1OCCCN1CCCC1 [Compound 213]	> 10	> 10		
COc1ccc(Nc2cc(C)nc3ncnn23)cc1OCCCN1CCCC1 [Compound 202]	> 10	> 10		
COc1ccc(Nc2nccc(CNC3CCN(C)CC3)n2)cc1OCCCN1CCCC1 [Compound 111]	> 10	> 10		
COc1ccc(Nc2ncc(NC(C)=O)cn2)cc1OCCCN1CCCC1 [Compound 194]	> 10	> 10		
CNc1nc(Nc2ccc(OC)c(OCCCN3CCCC3)c2)nc2ccccc12 [Compound 263, N^2-(4-methoxy-3-(3-(pyrrolidin-1-yl)propoxy)phenyl)-N^4-methylquinazoline-2,4-diamine]			< 0.1	< 0.1
CCCCNc1nccc(NCC2CCOC2)n1 (stereo not shown) [Compound 62]	> 10	> 10		
CCCCNc1nc(C#N)cc(NCC2CCNCC2)n1 [Compound 94]	1 to 10	1 to 10		
COc1ccc(Nc2nccc(CNC3CCOCC3)n2)cc1OCCCN1CCCC1 [Compound 107]	> 10	> 10		
CCCCNc1nccc(NCCCN(C)C)n1 [Compound 76]	> 10	> 10		
CNc1ccnc(Nc2ccc(OC(F)(F)F)c(OCCCN3CCCC3)c2)n1 [Compound 315, N^4-methyl-N^2-(3-(3-(pyrrolidin-1-yl)propoxy)-4-(trifluoromethoxy)phenyl)pyrimidine-2,4-diamine]			1 to 10	1 to 10
COc1ccc(Nc2cc(NCC3CCNCC3)ncn2)cc1OCCCN1CCCC1 [Compound 108]	1 to 10	1 to 10		
CCCCNc1nccc(NCC2CCC(N)CC2)n1 (stereo not shown) [Compound 68]	> 10	> 10		
CCCCNc1nccc(NC2CCCCC2)n1 [Compound 58]	> 10	> 10		
CC(=O)N1CCC(CNc2ccnc(Nc3cccc(NC(=O)CCN4CCCC4)c3)n2)CC1 [Compound 114]	> 10	> 10		
O=C(NCCNc1ccnc(NCC2CCNCC2)n1)c1ccc(N2CCCC2)cc1 [Compound 99]	> 10	> 10		
